{"source": "paper PMC2974656", "about": "“Selective killing of human immunodeficiency virus infected cells by non-nucleoside reverse transcriptase inhibitor-induced activation of HIV protease” (Retrovirology, 2010)", "key": {"[1]": {"tested_on": "intracellular Gag processing by HIV PR", "type": "cell-based, HIV-1", "conditions": "293T cells, 44 h post transfection", "method": "In previous studies, high concentrations of NNRTI (5 μM) were required to observe NNRTI mediated activation of intracellular HIV PR activity. […]. Towards this end, we developed a biochemical assay for gel independent quantitation of intracellular Gag processing by HIV PR in the context of a virus producing cell. We had previously shown that additional protein domains, consisting of small epitope tags or even the 27 kDa green fluorescent protein (EGFP), can be inserted between the MA and CA domains of the Gag and Gag-Pol polyproteins without affecting polyprotein production or processing by HIV PR [36]. Based on this, we designed a HIV reporter construct which contained a small N-terminal fragment ('alpha peptide') of Escherichia coli beta-galactosidase (β-Gal), flanked by two HIV PR recognition sites, between the MA and CA coding sequences of Gag (Figure 1A). […] This so called alpha complementation principle can be exploited for use in mammalian cells and has been employed for the establishment of various cell based biochemical assay systems. We reasoned that embedding of the small alpha peptide within the multi-domain polyproteins Gag or Gag-Pol, respectively, should impair its productive association with the omega subunit, while proteolytic release of the alpha peptide from the polyprotein by PR would allow the formation of enzymatically active β-Gal. This should allow us to monitor intracellular Gag and Gag-Pol processing through increased β-Gal activity.\nReconstituted β-Gal activity in cell lysates was measured by cleavage of the chromogenic substrate CPRG [42] as described in Methods.\nThe activity of β-Gal in cell lysates from transfected 293T cells was measured by enzymatic cleavage of the chromogenic β-Gal substrate chlorphenolred-β-D-galactopyranoside (CPRG, Roche; [42]). At 44 h post transfection, cells were briefly rinsed with PBS and suspended in reporter gene assay lysis buffer (Roche, 600 μl per 6-well dish) supplemented with a protease inhibitor mix (Roche). Cell suspensions were incubated for 10 min at room temperature and cell debris was subsequently removed by brief centrifugation. Five μl of supernatant were diluted in 96-well plates with 95 μl CPRG reaction buffer (50 mM potassium phosphate, pH 7.5, 1 mM MgCl2) and pre-warmed for 5 min to 37°C. 100 μl of pre-warmed reaction mix (100 μM CPRG in CPRG reaction buffer supplemented with protease inhibitor cocktail and 40 μM β-mercaptoethanol) were added and β-Gal mediated cleavage of CPRG was monitored by recording absorption at 592 nm every 2 min for 20 min at 37°C using a TECAN Safire multi-well reader. OD592 values were plotted over time and relative reaction rates (OD592/min) were determined from the initial linear velocities."}, "[2]": {"tested_on": "MT4-LTR-EGFP-IIIB cells", "type": "cell-based", "conditions": "1 μM, 6 days, trypan blue", "source_text": "In MT4-LTR-EGFP-IIIB cells, HIV expression could additionally be detected through long terminal repeat (LTR) driven expression of the gfp marker gene. As a control we used uninfected MT-4 cells or MT4-CMV-EGFP cells, constitutively expressing EGFP from a CMV promoter, respectively.\nCell lysates were harvested and analyzed by immunoblot using antiserum raised against HIV-1 CA. Positions of Gag and Gag-Pol processing products are marked at the right, molecular mass standards are indicated to the left (in kDa). […] Live cells were counted after trypan blue staining. Data represent mean values and standard deviations from three parallel cultures."}, "[3]": {"tested_on": "HIV-1IIIB", "experiment": "Direct antiviral activity: MT4-LTR-EGFP cells infected with HIV-1IIIB, EGFP fluorescence", "type": "cell-based", "conditions": "MT4-LTR-EGFP cells, HIV-1IIIB MOI 0.01, 3 days; mean ± SD of three or more measurements; read-out: Inhibition of HIV replication in vitro EC50", "method": "After 3 days of incubation, infected cells were quantified by determination of total EGFP fluorescence per well based on microscopy and subsequent image analysis. Threshold values were determined from the average pixel value plus 6 standard deviations from the uninfected control wells, and the median threshold from all control wells on a plate was defined as baseline GFP expression. Intensity values for the sample wells were then determined by subtracting the background threshold from each pixel value obtained from the image of the respective well and calculating the sum of net pixel intensities. Percent inhibition was calculated as 100 * (1 - (Sample - CC)/(VC - CC))."}}, "data": [{"smiles": "NS(=O)(=O)c1ccc(NC(=O)CSc2nnc(Br)n2-c2ccc(C3CC3)c3ccccc23)c(Cl)c1", "note": "[VRX-480773]", "values": [{"measurement": "Concentration showing strong β-Gal activity enhancement", "setting": "[1]", "result": "~ 250 nM"}, {"measurement": "Live cell numbers, HIV infected MT4-LTR-EGFP-IIIB cells", "setting": "[2]", "result": "significant decrease"}, {"measurement": "EC50", "setting": "[3]", "result": "1.6 ± 0.81", "unit": "nM"}]}]}
